Reference: US20250353873A1, “COMPOUNDS AND METHODS FOR MODULATING APOE EXPRESSION” (Ionis Pharmaceuticals, Inc., priority 2024, published 2025)
Strand notation (5' to 3'): a small letter for the sugar, then the base; units joined by * are phosphorothioate-linked, units joined directly phosphodiester-linked; [ ] holds rarer units or linkages, { } end groups; capitals alone tell only the bases. [ms] = mesyl phosphoramidate linkage; e = 2'-O-(2-methoxyethyl) (MOE); k = constrained ethyl (cEt); [5mC] = 5-methylcytosine; d = 2'-deoxy (DNA)

How the values were obtained:
Type in all cases: in vivo
human APOE RNA [1] = assay: Potency (dose response, ED50) in APOE C57BL/6NTac-Apoeem7250 knock-in mice, 8 weeks (Example 15)
Procedure: Modified oligonucleotides described above were tested in the APOE C57BL/6NTac-Apoeem7250 knock-in mouse model described above.
APOE C57BL/6NTac-Apoeem7250 knock-in mice were divided into groups of 3-4 mice each. A group of 4 mice received a single ICV bolus with PBS as a negative control.
Eight weeks post treatment, mice were sacrificed, and RNA was extracted from cortical brain tissue and spinal cord for quantitative real-time RT-PCR analysis of RNA expression of […] using human primer probe set RTS3073 (described herein above). APOE RNA levels were normalized to mouse Ppia. Mouse Ppia was amplified using primer probe set m_cyclo24 (described herein above). Results are presented as percent human APOE RNA relative to the amount of APOE RNA in PBS treated animals, (% control). N.C. indicates values that were not calculated.
The half maximal effective dose (ED50) of each modified oligonucleotide was calculated using GraphPad Prism 10 software (GraphPad Software, San Diego, CA).

human APOE RNA [2] = assay: Duration of action study in APOE C57BL/6NTac-Apoeem7250 knock-in mice (Example 16); settings: 300 μg ICV
In short: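 Knock-in mice (2-4 per group) received a single ICV bolus of 300 μg oligonucleotide or PBS. At various timepoints, cortex and spinal cord human APOE RNA was measured by RT-qPCR (RTS3073), normalized to mouse Ppia and expressed as % of PBS control.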

human APOE RNA [3] = assay: Duration of action study in APOE C57BL/6NTac-Apoeem7250 knock-in mice (Example 18)
Procedure: Modified oligonucleotides described above were tested in the APOE C57BL/6NTac-Apoeem7250 knock-in model (described above).
Each mouse received a single intracerebroventricular (ICV) bolus of 300 μg of modified oligonucleotide. A group of 4-6 mice received a single ICV bolus with PBS as a negative control.
Mice were sacrificed at various timepoints as indicated in the table below and RNA was extracted from cortical brain tissue and spinal cord for quantitative real-time RT-PCR analysis of RNA expression of APOE using primer probe set RTS3073 (described herein above). APOE RNA levels were normalized to mouse Ppia. Mouse Ppia was amplified using primer probe set m_cyclo24 (described herein above). Results are presented as percent human APOE RNA relative to the amount of human APOE RNA in PBS treated animals, (% control). Each experiment is identified in separate tables below.

[4] = 196 days post-dose, single ICV bolus 300 μg, APOE knock-in mice, normalized to mouse Ppia, relative to PBS
[5] = 224 days post-dose, single ICV bolus 300 μg, APOE knock-in mice, normalized to mouse Ppia, relative to PBS
[6] = 285 days post-dose, single ICV bolus 300 μg, APOE knock-in mice, normalized to mouse Ppia, relative to PBS

Substance: TezTeoGeoGksTdsGdzAdzAdzTds^mCdsTdsTdsTdsAdzTksTksAesAesAes^mCe (antisense eT[ms]eTeGkG*dT*dG[ms]dA[ms]dA[ms]dT*d[5mC]*dT*dT*dT*dA[ms]kT*kT*eA*eA*eA*e[5mC]) [Compound No. 1809814]
- APOE RNA (% control) Cortex (human APOE RNA [1]; cortex, ICV dose 10 μg): 97 % control
- APOE RNA (% control) Cortex (human APOE RNA [1]; cortex, ICV dose 30 μg): 85 % control
- APOE RNA (% control) Cortex (human APOE RNA [1]; cortex, ICV dose 100 μg): 72 % control
- APOE RNA (% control) Cortex (human APOE RNA [1]; cortex, ICV dose 300 μg): 47 % control
- APOE RNA (% control) Cortex (human APOE RNA [1]; cortex, ICV dose 700 μg): 37 % control
- ED 50 (μg) Cortex (human APOE RNA [1]; cortex, single ICV bolus, GraphPad Prism 10): 309.5 µg
- APOE RNA (% control) Spinal Cord (human APOE RNA [1]; spinal cord, ICV dose 10 μg): 81 % control
- APOE RNA (% control) Spinal Cord (human APOE RNA [1]; spinal cord, ICV dose 30 μg): 60 % control
- APOE RNA (% control) Spinal Cord (human APOE RNA [1]; spinal cord, ICV dose 100 μg): 45 % control
- APOE RNA (% control) Spinal Cord (human APOE RNA [1]; spinal cord, ICV dose 300 μg): 29 % control
- APOE RNA (% control) Spinal Cord (human APOE RNA [1]; spinal cord, ICV dose 700 μg): 28 % control
- ED 50 (μg) Spinal Cord (human APOE RNA [1]; spinal cord, single ICV bolus, GraphPad Prism 10): 78.7 µg
- APOE RNA (% control) Cortex (human APOE RNA [2]; 7 days post-dose): 62 % control
- APOE RNA (% control) Cortex (human APOE RNA [2]; 14 days post-dose): 57 % control
- APOE RNA (% control) Spinal Cord (human APOE RNA [2]; 7 days post-dose): 84 % control
- APOE RNA (% control) Spinal Cord (human APOE RNA [2]; 14 days post-dose): 53 % control
- APOE RNA (% control) Cortex (human APOE RNA [3]; 300 μg ICV, 28 days post-dose): 55 % control
- APOE RNA (% control) Cortex (human APOE RNA [3]; 300 μg ICV, 112 days post-dose): 57 % control
- APOE RNA (% control) Cortex (human APOE RNA [3]; 300 μg ICV, 140 days post-dose): 71 % control
- APOE RNA (% control) Cortex (human APOE RNA [3]; [4]): 68 % control
- APOE RNA (% control) Cortex (human APOE RNA [3]; [5]): 90 % control
- APOE RNA (% control) Cortex (human APOE RNA [3]; [6]): 95 % control
- APOE RNA (% control) Spinal Cord (human APOE RNA [3]; 300 μg ICV, 28 days post-dose): 52 % control
- APOE RNA (% control) Spinal Cord (human APOE RNA [3]; 300 μg ICV, 112 days post-dose): 39 % control
- APOE RNA (% control) Spinal Cord (human APOE RNA [3]; 300 μg ICV, 140 days post-dose): 43 % control
- APOE RNA (% control) Spinal Cord (human APOE RNA [3]; [4]): 57 % control
- APOE RNA (% control) Spinal Cord (human APOE RNA [3]; [5]): 54 % control
- APOE RNA (% control) Spinal Cord (human APOE RNA [3]; [6]): 84 % control
